The values below come from paper PMC7695835, “Pharmacological characterisation of novel adenosine A3 receptor antagonists” (Scientific Reports, 2020).

In one data set the target is T1, rat A3R (Rattus norvegicus, UniProt P28647).
T1 sequence (P28647 1-320): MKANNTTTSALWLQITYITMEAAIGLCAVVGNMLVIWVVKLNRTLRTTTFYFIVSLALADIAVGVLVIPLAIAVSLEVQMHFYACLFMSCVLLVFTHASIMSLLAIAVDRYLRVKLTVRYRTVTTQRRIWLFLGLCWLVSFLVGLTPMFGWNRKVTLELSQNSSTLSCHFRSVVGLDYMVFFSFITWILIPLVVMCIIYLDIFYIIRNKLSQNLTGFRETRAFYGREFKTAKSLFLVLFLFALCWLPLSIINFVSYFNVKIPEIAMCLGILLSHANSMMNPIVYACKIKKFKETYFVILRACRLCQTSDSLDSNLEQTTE
The data set is described as follows: NanoBRET ligand-binding, Nluc-rat A3R HEK 293 cells, AV039 tracer. Particulars: for binding at rat A3R: no binding detected below the concentration of 10 μM; for pKi: rat A3R, 100 nM AV039, BRET ratio at 5 minutes, Cheng-Prusoff.

Data set [1] addresses T2, A2AR (Homo sapiens, UniProt P29274).
T2 construct: expressed in transfected cells; host or cells: CHO cells, membrane preparation
Set-up: method as in Lagarias et al.[19]. The note with it: 10 nM [3H]NECA; ref Lagarias et al.[19]; read-out: Radioligand binding Ki A2AR; cited from earlier work.

The target in data set [2] is T3, A1R (Homo sapiens, UniProt P30542).
T3 construct: expressed in transfected cells
T3 sequence (P30542 1-326): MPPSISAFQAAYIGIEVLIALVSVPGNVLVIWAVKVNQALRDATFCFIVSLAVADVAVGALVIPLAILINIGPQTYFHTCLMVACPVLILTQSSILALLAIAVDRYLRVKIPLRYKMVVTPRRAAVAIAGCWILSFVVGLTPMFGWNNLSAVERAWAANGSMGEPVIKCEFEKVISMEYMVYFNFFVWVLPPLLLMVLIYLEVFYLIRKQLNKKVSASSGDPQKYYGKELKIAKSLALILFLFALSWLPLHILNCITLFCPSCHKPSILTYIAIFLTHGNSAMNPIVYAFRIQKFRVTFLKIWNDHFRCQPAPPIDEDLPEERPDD
On the set-up: method as in Lagarias et al.[19]. Particulars: 1 nM [3H]CCPA; ref Lagarias et al.[19]; read-out: Radioligand binding Ki A1R; cited from earlier work.

The nature of the next data set: physchem. Particulars: PBS, pH 7.4.
Data set [3] can be described thus: Half-life in PBS (pH 7.4). Particulars: PBS pH 7.4, 1 μM compound.
The nature of the next data set: in vitro. The note with it: human, plasma.
A short description of a further data set: Human plasma stability. The note with it: 1 μM compound.
Data set [4] addresses T3, A1R. The data set is described as follows: Radioligand binding at A1R ([3H]CCPA, CHO cell membranes). The note with it: 1 nM [3H]CCPA; three independent experiments. The procedure: (§1) All pharmacological methods followed the procedures as described in the literature. In brief, membranes for radioligand binding were prepared from CHO cells stably transfected with hAR subtypes in a two-step procedure. In the first step, cell fragments and nuclei were removed at 1000×g and then the crude membrane fraction was sedimented from the supernatant at 100,000×g. The membrane pellet was resuspended in the buffer used for the respective binding experiments and it was frozen in liquid nitrogen and stored at – 80 °C. […] Ki values from competition experiments were calculated using Prism (GraphPad Software, La Jolla, CA, USA) assuming competitive interaction with a single binding site.

Data set [5] addresses T2, A2AR. The data set is described as follows: Radioligand binding at A2AR ([3H]NECA, CHO cell membranes). Particulars: 10 nM [3H]NECA; three independent experiments. The procedure: as §1
Data set [6] has as its target T4, A3R (Homo sapiens, UniProt P0DMS8).
T4 sequence (P0DMS8 1-318): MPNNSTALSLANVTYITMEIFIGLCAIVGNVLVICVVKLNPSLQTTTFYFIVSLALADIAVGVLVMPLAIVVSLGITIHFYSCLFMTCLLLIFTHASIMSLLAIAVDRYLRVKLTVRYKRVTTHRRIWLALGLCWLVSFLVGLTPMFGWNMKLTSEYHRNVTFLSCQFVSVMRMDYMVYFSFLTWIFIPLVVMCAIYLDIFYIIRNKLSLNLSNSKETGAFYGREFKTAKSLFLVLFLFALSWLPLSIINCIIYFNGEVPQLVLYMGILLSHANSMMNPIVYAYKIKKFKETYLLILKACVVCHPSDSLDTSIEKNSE
Briefly: Radioligand binding at A3R ([3H]HEMADO, CHO cell membranes). The note with it: 1 nM [3H]HEMADO; three independent experiments.

Data set [7] concerns the target T4, A3R. Particulars: for cAMP accumulation Mean difference between 'NECA' and compound: 10 μM forskolin + NECA IC80 + 1 μM compound.
Data set [8] has as its target T4, A3R. The data set is described as follows: HEMADO induced cAMP inhibition at the A3R. In kind it is cell-based. Particulars: HEMADO only.
Data set [9] concerns the target T3, A1R. Briefly: NECA stimulated cAMP inhibition in CHO-K1 cells expressing A1R. Particulars: NECA only. In kind it is cell-based.
In data set [10] the target is T4, A3R. Briefly: NECA stimulated cAMP inhibition in A3R Flp-In CHO cells. In kind it is cell-based. Particulars: NECA only; lower plateau.
The mark [11] stands for this setting: 10 μM forskolin + NECA IC80 (3.16 nM) + 1 μM compound, mean ± SEM, n = 3.

Structures are written as SMILES. Like-named read-outs stand apart in the source and are kept apart here.

The pKi is the negative decadic logarithm of the Ki, by convention in mol/L. For orientation: Ki means a dissociation constant, usually derived from enzyme kinetics or from competition with a known ligand. The half-life is the time needed for the level to fall by half in the phase considered.

T2 sequence (P29274 whole entry): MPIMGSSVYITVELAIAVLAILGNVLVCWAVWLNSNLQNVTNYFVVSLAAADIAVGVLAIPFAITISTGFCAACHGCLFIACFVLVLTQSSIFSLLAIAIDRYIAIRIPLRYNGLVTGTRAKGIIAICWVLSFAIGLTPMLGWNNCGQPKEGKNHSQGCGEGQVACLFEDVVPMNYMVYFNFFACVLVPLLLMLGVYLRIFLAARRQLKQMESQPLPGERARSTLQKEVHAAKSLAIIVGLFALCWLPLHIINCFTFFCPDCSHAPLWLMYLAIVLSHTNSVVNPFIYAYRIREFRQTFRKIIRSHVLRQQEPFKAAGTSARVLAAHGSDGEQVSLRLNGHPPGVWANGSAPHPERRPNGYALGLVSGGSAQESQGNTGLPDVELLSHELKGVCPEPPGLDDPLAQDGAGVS

`COc1ccc(-n2nc3c(NC(=O)CCC(=O)NCCOCCOCCNC(=O)CCCCCNC(=O)COc4ccc(/C=C/C5=[N+]6C(=Cc7ccc(-c8cccs8)n7[B-]6(F)F)C=C5)cc4)nc4ccccc4n3c2=O)cc1` [AV039, reference compound]: the Kd at rat A3R (read-out: KD (saturation binding), fluorescent tracer at Nluc-rat A3R) stood at 0.102 ± 0.00759 µM.

As to `Cc1onc(-c2ccccc2Cl)c1C(=O)O/N=C(\N)c1cccnc1` [Compound K10], on rat A3R, the “binding at rat A3R” value is listed as “very weak binding” and the pKi stood at 4.19 ± 0.09. The Ki on A2AR [1] was above 60 µM. On A1R [2], the inhibitory constant (Ki) was above 60 µM.

Turning to `Cc1nc(C(N)=NOC(=O)c2c(-c3ccccc3Cl)noc2C)cs1` [Compound K17], at rat A3R, the “binding at rat A3R” value is on record as “very weak binding” and the pKi is listed as 4.60 ± 0.09. Further, the Ki on A2AR [1] is above 60 µM. The Ki on A1R [2] is above 30 µM.

For `Cc1nc(C(=N)NOC(=O)c2c(-c3c(Cl)cccc3Cl)noc2C)cs1` [Compound K18, O4-{[3-(2,6-dichlorophenyl)-5-methylisoxazol-4-yl]carbonyl}-2-methyl-1,3-thiazole-4-carbohydroximamide], the half-life at 1 μM in the data set “physchem” is above 4 h; in the data set “in vitro” it was above 2 h. The “percentage remaining at 240 min” value in data set [3] worked out at 87%. Also, the inhibitory constant (Ki) at A2AR [1] and on A1R [2] was above 100 µM throughout. The “percentage remaining after 120 min” value in “Human plasma stability” is 90%.

The compound `Cc1onc(-c2ccccc2Cl)c1C(=O)O/N=C(\N)c1ccccn1` [Compound K32] gave a Ki at A1R [4] above 100 µM. For the same compound, at rat A3R, the “binding at rat A3R” value is reported as “very weak binding” and the pKi was found to be 4.05 ± 0.10. Further, the inhibition constant (Ki) at A2AR [5] is above 100 µM.

On to `N/C(=N\OC(=O)c1ccccc1-c1ccccc1)c1cccnc1` [Compound K33], for which the Ki was above 30 µM at A3R [6], above 100 µM on A1R [4] and above 100 µM at A2AR [5]. Also, the “cAMP accumulation Mean” value on A3R [7] (setting [11]) was 71.97 ±4.74 %10 μM forskolin response. The “cAMP accumulation Mean difference between 'NECA' and compound” value on A3R [7] is reported as -11.65 %10 μM forskolin response.

With `N/C(=N\OC(=O)c1ccc(-c2ccccc2)cc1)c1ccc(Br)cc1` [Compound K36], the Ki at A3R [6], on A1R [4] and at A2AR [5] was above 100 µM throughout. Also, the “cAMP accumulation Mean” value at A3R [7] (setting [11]) was found to be 61.96 ±1.51 %10 μM forskolin response. In addition, the “cAMP accumulation Mean difference between 'NECA' and compound” value on A3R [7] is recorded as -1.64 %10 μM forskolin response.

As to `CCCCC#Cc1nc(NC)c2ncn([C@@H]3O[C@H](CO)[C@@H](O)[C@H]3O)c2n1` [HEMADO, (2R,3R,4S,5R)-2-(2-hex-1-ynyl-6-methylaminopurin-9-yl)-5-(hydroxymethyl)oxolane-3,4-diol], the Span on A3R [8] is 107.3 ±4.7. Moreover, the IC50 at A3R [8] (10 µM forskolin, n = 3, read-out: pIC50 of HEMADO (converted)) is 0.0288 nM. For the same compound, the Emin on A3R [8] (lower plateau) is given as -3.48 ±2.7 % 10 µM forskolin response. The Basal at A3R [8] (upper plateau) stood at 103.8 ±4.1.

Compound `CCNC(=O)[C@H]1O[C@@H](n2cnc3c(N)ncnc32)[C@H](O)[C@@H]1O` [NECA] returned a Span at A1R [9] of 111.4 ±4.0. The Emin on A1R [9] (lower plateau) is -5.1 ±1.0 % forskolin response; at A3R [10], -5.02 ±2.4 % 10 µM forskolin response, relative to NECA. The compound also registered a Basal at A1R [9] (upper plateau) of 107.5 ±3.4. For the same compound, the “cAMP accumulation Mean” value on A3R [7] (10 μM forskolin + NECA IC80 (3.16 nM), no test compound) was found to be 60.32 ± 3.41 %10 μM forskolin response.

On to `CC(C)[N+](C)(CCOC(=O)C1c2ccccc2Oc2ccccc21)C(C)C` [propantheline, reference compound], for which the half-life at 1 μM was above 4 h in “physchem” and 0.917 h in “in vitro”.
